Read-outs that look alike come from different tables or passages of the source.
Key:
[1] = Microsomal metabolic stability, mouse; type: in vitro ADME; settings: for half-life: mouse, liver microsomes
[2] = target: T1, Plasmodium falciparum bc1 complex cytochrome c reductase (Pfbc1) (Plasmodium falciparum, UniProt Q02768); assay: Pfbc1 native assay (cytochrome c reduction by parasite extract); type: biochemical; settings: compound 1 μM, mean ± s.e.m. of 4 independent experiments
T1 construct: Parasite extract was then prepared by disruption with a sonicating probe; endogenous in cells; host or cells: P. falciparum 3D7 blood-stage parasites, saponin-freed and sonicated (crude parasite extract)
T1 sequence (Q02768 1-376): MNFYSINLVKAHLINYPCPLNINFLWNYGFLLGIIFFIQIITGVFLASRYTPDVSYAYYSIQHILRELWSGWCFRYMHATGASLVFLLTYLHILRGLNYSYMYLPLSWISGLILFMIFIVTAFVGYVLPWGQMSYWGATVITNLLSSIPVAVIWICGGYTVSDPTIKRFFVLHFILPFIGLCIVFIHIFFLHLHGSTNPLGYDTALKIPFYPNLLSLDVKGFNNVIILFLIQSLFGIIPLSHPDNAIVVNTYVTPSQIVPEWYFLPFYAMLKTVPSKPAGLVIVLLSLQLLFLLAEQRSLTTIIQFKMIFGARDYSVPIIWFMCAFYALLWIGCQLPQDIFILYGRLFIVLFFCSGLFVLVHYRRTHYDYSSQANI
Protocol: Plasmodium falciparum: 3D7 strain was obtained from the Liverpool School of Tropical Medicine. Protease cocktail inhibitor was obtained from Roche. Bradford protein assay dye reagent was obtained from Bio-Rad. All other reagents were obtained from Sigma-Aldrich. Decylubiquinol was produced as per Fisher et al. (Fisher et al. 2004)^21. In brief, 25 mg of decylubiquinone were dissolved in 400 μl of nitrogen-saturated hexane. An equal volume of aqueous 1 M sodium dithionite was added, and the mixture vortexed until colorless. The organic phase containing the decylubiquinol was collected, the solvent was evaporated under N2 and the decylubiquinol finally dissolved in 100 μl of 96% ethanol (acidified with 10 mM HCl). Concentrations of decylubiquinol was determined spectrophotometrically on a Cary 300 Bio UV/visible spectrophotometer (Varian, UK) from absolute spectra, using ε288-320=8.1 mM-1·cm^−1. Decylubiquinol was stored at −80° C. and used within two weeks.
The protocol for the preparation of parasite extract was adapted from Fisher et al. (Fisher et al. 2009)^22. Free parasites were prepared from infected erythrocytes pooled from five T75 flasks, by adding 5 volumes of 0.15% (w/v) saponin in phosphate-buffered saline (137 mM NaCl, 2.7 mM KCl, 1.76 mM K2HPO4, 8.0 mM Na2HPO4, 5.5 mM D-glucose, pH 7.4) for 5 min, followed by three washes by centrifugation in RPMI containing HEPES (25 mM), and a final resuspension in potassium phosphate buffer (50 mM K2HPO4, 50 mM KH2PO4, 2 mM EDTA, pH7.4) containing a protease inhibitor cocktail (Complete Mini; Roche). Parasite extract was then prepared by disruption with a sonicating probe for 5 s, followed by a 1 min rest period on ice to prevent the sample overheating. […] The protein concentration of the parasite extract was determined by Bradford protein assay (Bio-Rad).
Plasmodium falciparum bc1 complex cytochrome c reductase (Pfbc1) activity was measured by monitoring cytochrome c reduction at 550 versus 542 nm using a Cary 300 Bio UV-Visible Spectrophotometer (Varian, UK), using a protocol adapted from Fisher et al. (Fisher et al. 2009)^21-23. […]

Cc1[nH]c2c(c(=O)c1-c1ccc(Oc3ccc(OC(F)(F)F)cc3)cc1)CCCC2 [JAG21, 2-methyl-3-(4-(4-(trifluoromethoxy)phenoxy)phenyl)-5,6,7,8-tetrahydroquinolin-4(1H)-one]
Mouse microsomal stability T1/2 [1]: 101 min | Inhibition of cytochrome c reduction (% atovaquone response) [2]: 86.4 ± 3.2 % atovaquone response

Cc1[nH]c2c(c(=O)c1-c1ccc(Oc3ccccc3)cc1)CCCC2 [MJM170]
Mouse microsomal stability T1/2 [1]: 21.0 min | half-life ([1]; read-out: Mouse liver microsomes T1/2): 21 min | half-life ([1]; read-out: Mouse microsomal stability T1/2): 20 min | inhibition at 1 µM ([2]; read-out: Inhibition of cytochrome c reduction (% atovaquone response)): 69.7 ± 11.3%
